From patent publication US4696928A, “Substituted dihydroimidazo[1,2-a]quinoxalines” (G. D. Searle & Co., priority 1985, dated 1987)
≈ marks a conversion by molar mass, not a printed value. Where “and” joins values, the source holds several entries; their conditions need not be identical. Equal values may be shown once. Read-outs that look alike come from different tables or passages of the source.

Tests used:
[1] = system: B. fragilis MZ-R ATCC 11295; assay: MIC/MBC broth microdilution, strain D; type: cell-based; settings: Bacteroides fragilis, ATCC11295, 48 h; for MBC: 99.9% reduction in viable count after 48 h
B. fragilis NCTC 10581 = assay: MIC/MBC broth microdilution, strain A; type: cell-based; settings: Bacteroides fragilis, NCTC10581, 48 h; for MBC: 99.9% reduction in viable count after 48 h; for MIC: 37° C., anaerobic
B. Fragilis ATCC 23745 = settings: for ED (1 log reduction): Bacteroides fragilis, ATCC23745, in Mus musculus, po
B. fragilis NCTC 9344 = assay: MIC/MBC broth microdilution, strain C; type: cell-based, Bacteroides fragilis; settings: for MBC: 99.9% reduction in viable count after 48 h; for MIC: 37° C., anaerobic
B. fragilis NCTC 9343 = assay: MIC/MBC broth microdilution, strain B; type: cell-based; settings: Bacteroides fragilis, NCTC9343, 48 h; for MBC: 99.9% reduction in viable count after 48 h; for MIC: 37° C., anaerobic
[2] = system: Campylobacter fetus ss.jejuni ATCC 29428; assay: MIC vs. panel of anaerobes; type: cell-based; settings: ATCC29428
[3] = system: Clostridium perfringens NCTC 8237; assay: microbe, parasite or virus in culture; type: cell-based; settings: NCTC8237
[4] = system: Bacteroides melanogenicus NCTC 9336; assay: MIC vs. panel of anaerobes; type: cell-based; settings: NCTC9336
B. fragilis WS-1 = assay: MIC/MBC broth microdilution, strain E; type: cell-based, Bacteroides fragilis; settings: for MIC: 37° C., anaerobic; for MBC: 99.9% reduction in viable count after 48 h
[5] = system: Propionebecterium acnes NCTC 737; assay: MIC vs. panel of anaerobes; type: cell-based
[6] = system: Clostridium difficile Cytotoxic 1; assay: MIC vs. panel of anaerobes; type: cell-based; settings: Clostridioides difficile
[7] = system: Clostridium difficile NCIB 10666; assay: MIC vs. panel of anaerobes; type: cell-based; settings: Clostridioides difficile, NCIB10666; Clostridium difficile NCIB 10666; read-out: MIC
[8] = system: Propionebacterium acnes NCTC 7337; assay: MIC vs. panel of anaerobes; type: cell-based
[9] = system: Clostridium perfringens NCTC 523; assay: microbe, parasite or virus in culture; type: cell-based; settings: NCTC523
[10] = system: Fusobacterium necrophorum ATCC 11295; assay: MIC vs. panel of anaerobes; type: cell-based; settings: ATCC11295; Fusobacterium necrophorum ATCC 11295; read-out: MIC
[11] = system: Peptostreptococcus anaerobicus; assay: MIC vs. panel of anaerobes; type: cell-based
[12] = 48 h, read-out: Dose giving 1 log reduction, p.o., after infection and twice daily for 2 days, 1 log (90%) reduction of CFU/ml liver homogenate vs untreated, compound of Example
[13] = Bacteroides fragilis, NCTC9344, 48 h, read-out: MBC
[14] = Bacteroides fragilis, NCTC9344, 48 h, 48 h
[15] = strain D (MZ-R), 48 h, 37° C., anaerobic, read-out: MIC
[16] = Bacteroides fragilis, WS1, 48 h, read-out: MIC
[17] = Bacteroides fragilis, WS1, 48 h
[18] = Bacteroides melanogenicus NCTC 9336, read-out: MIC
[19] = Bacteroides fragilis, NCTC9344, 48 h, read-out: MIC
[20] = Peptostreptococcus anaerobicus, read-out: MIC
[21] = Bacteroides fragilis, WS1, 48 h, 48 h

Compound	MIC [1]	MBC ([1]; strain D (MZ-R))	MBC (B. fragilis NCTC 10581)	MIC (B. fragilis NCTC 10581; 48 h)	ED (1 log reduction) (B. Fragilis ATCC 23745; [12])	MBC (B. fragilis NCTC 9344; [13])	MIC (B. fragilis NCTC 9344; [14])	MBC (B. fragilis NCTC 9343)	MIC (B. fragilis NCTC 9343; 48 h)	MIC [2]	MIC [3]	MIC [5]	MIC [6]	MIC [7]	MIC [8]	MIC [9]	MIC [10]	MIC [4, 18]	MIC (B. fragilis NCTC 9344; [19])	MIC [11, 20]	also measured
CN1CCN(c2ccc3c(n2)N2CCN=C2C(c2ccccc2)=[N+]3[O-])CC1 [Example 9, 1,2-Dihydro-8-(4-methylpiperazinyl)-4-phenylimidazo[1,2-a]pyrido[3,2-e]pyrazine 5-oxide]	0.8 µg/mL (≈ 2.21 µM)	0.8 µg/mL (≈ 2.21 µM)	0.8 µg/mL (≈ 2.21 µM)	0.8 µg/mL (≈ 2.21 µM)	4.48 mg/kg	0.8 µg/mL (≈ 2.21 µM)	0.8 µg/mL (≈ 2.21 µM)	0.8 µg/mL (≈ 2.21 µM)	0.8 µg/mL (≈ 2.21 µM)												
CN1CCN(c2ccc3c(c2)N2CCN=C2C(c2ccccc2)=[N+]3[O-])CC1 [Example 4, 1,2-Dihydro-8-(4-methylpiperazinyl)-4-phenylimidazo[1,2-a]-quinoxaline 5-oxide]		1.5 µg/mL (≈ 4.15 µM)	3.1 µg/mL (≈ 8.58 µM)	3.1 µg/mL (≈ 8.58 µM)	7.73 mg/kg	3.1 µg/mL (≈ 8.58 µM)	3.1 µg/mL (≈ 8.58 µM)	3.1 µg/mL (≈ 8.58 µM)	3.1 µg/mL (≈ 8.58 µM)	25 µg/mL (≈ 69.2 µM)	12.5 µg/mL (≈ 34.6 µM)	25 µg/mL (≈ 69.2 µM)	6.2 µg/mL (≈ 17.2 µM)	1.5 µg/mL (≈ 4.15 µM)	25 µg/mL (≈ 69.2 µM)	6.2 µg/mL (≈ 17.2 µM)	6.2 µg/mL (≈ 17.2 µM)				MIC [1, 15]: 1.5 µg/mL (≈ 4.15 µM); MIC ([4]; Bacteroides): 12.5 µg/mL (≈ 34.6 µM); MIC (B. fragilis WS-1; [16]): 6.2 µg/mL (≈ 17.2 µM); MBC (B. fragilis WS-1; [17]): 6.2 µg/mL (≈ 17.2 µM); MIC ([11]; Peptostreptococcus): 12.5 µg/mL (≈ 34.6 µM)
[O-][N+]1=C(c2ccccc2)C2=NCCN2c2cc(N3CCN(c4ccccc4)CC3)c(F)cc21 [Example 5, 1,2-Dihydro-7-fluoro-4-phenyl-8-(4-phenylpiperazinyl)imidazo[1,2-a]quinoxaline 5-oxide]	0.8 µg/mL (≈ 1.81 µM)			3.1 µg/mL (≈ 7.02 µM)	11.7 mg/kg					> 100 µg/mL	6.2 µg/mL (≈ 14 µM)	> 100 µg/mL	< 0.8 µg/mL	< 0.8 µg/mL	> 100 µg/mL	3.1 µg/mL (≈ 7.02 µM)	6.2 µg/mL (≈ 14 µM)	> 100 µg/mL	6.2 µg/mL (≈ 14 µM)	> 100 µg/mL	MIC (B. fragilis WS-1; [16]): 1.5 µg/mL (≈ 3.4 µM); MIC (B. fragilis NCTC 9343; read-out: MIC): 1.5 µg/mL (≈ 3.4 µM)
Cc1ncc([N+](=O)[O-])n1CCO [Metronidazole, reference compound]	3.1 µg/mL (≈ 18.1 µM)		0.8 µg/mL (≈ 4.67 µM)	< 0.8 µg/mL		0.6 µg/mL (≈ 3.51 µM)	< 0.8 µg/mL		0.8 µg/mL (≈ 4.67 µM)	> 100 µg/mL	1.5 µg/mL (≈ 8.76 µM)	> 100 µg/mL	< 0.8 µg/mL		> 100 µg/mL	< 0.8 µg/mL	6.2 µg/mL (≈ 36.2 µM)	> 100 µg/mL	0.6 µg/mL (≈ 3.51 µM)	> 100 µg/mL	MIC (B. fragilis NCTC 10581; read-out: MIC): 0.6 µg/mL (≈ 3.51 µM); reduction in B. fragilis (B. Fragilis ATCC 23745; 40 mg/kg (p.o.)): 3-3.5 log10; ED (1 log reduction) (B. Fragilis ATCC 23745; read-out: Dose giving 1 log reduction, Metronidazole, p.o., positive control beside the compound of the same line): 1.64 mg/kg; MIC (B. fragilis WS-1; 48 h): < 0.8 µg/mL and 0.8 µg/mL; MIC (B. fragilis WS-1; [21]): 1.5 µg/mL (≈ 8.76 µM); MBC (B. fragilis NCTC 9344): 0.8 µg/mL and < 0.8 µg/mL; MIC (B. fragilis NCTC 9344; 48 h): 0.8 µg/mL (≈ 4.67 µM); MIC (B. fragilis NCTC 9343; read-out: MIC): 0.6 µg/mL (≈ 3.51 µM)
[O-][N+]1=C(c2ccccc2)C2=NCCN2c2nc(N3CCN(Cc4ccccc4)CC3)ccc21 [Example 17, 1,2-Dihydro-4-phenyl-8-(4-phenylmethylpiperazinyl)imidazo[1,2-a]pyrido[3,2-e]pyrazine 5-oxide]					3.59 mg/kg																
[O-][N+]1=C(c2ccccc2)C2=NCCN2c2cc(F)ccc21 [Example 1, 1,2-Dihydro-8-fluoro-4-phenylimidazo[1,2-a]quinoxaline 5-oxide]	0.8 µg/mL (≈ 2.84 µM)	1.5 µg/mL (≈ 5.33 µM)	3.1 µg/mL (≈ 11 µM)	3.1 µg/mL (≈ 11 µM)	7.57 mg/kg	1.5 µg/mL (≈ 5.33 µM)		3.1 µg/mL (≈ 11 µM)	3.1 µg/mL (≈ 11 µM)	2.5 µg/mL (≈ 8.89 µM)	3.1 µg/mL (≈ 11 µM)	50 µg/mL (≈ 178 µM)	< 0.8 µg/mL	< 0.8 µg/mL	50 µg/mL (≈ 178 µM)	3.1 µg/mL (≈ 11 µM)	< 0.8 µg/mL	25 µg/mL (≈ 88.9 µM)	1.5 µg/mL (≈ 5.33 µM)	25 µg/mL (≈ 88.9 µM)	MBC (B. fragilis WS-1; [17]): 3.1 µg/mL (≈ 11 µM); MIC (B. fragilis WS-1; [21]): 3.1 µg/mL (≈ 11 µM)
CC(=O)N1CCN(c2ccc3c(c2)N2CCN=C2C(c2ccccc2)=[N+]3[O-])CC1 [Example 7, 8-(4-Acetylpiperazinyl)-1,2-dihydro-4-phenylimidazo[1,2-a]quinoxaline 5-oxide]		1.5 µg/mL (≈ 3.85 µM)	6.2 µg/mL (≈ 15.9 µM)		11.3 mg/kg	6.2 µg/mL (≈ 15.9 µM)		3.1 µg/mL (≈ 7.96 µM)	3.1 µg/mL (≈ 7.96 µM)	12.5 µg/mL (≈ 32.1 µM)	3.1 µg/mL (≈ 7.96 µM)	25 µg/mL (≈ 64.2 µM)	< 0.8 µg/mL	< 0.8 µg/mL	12.5 µg/mL (≈ 32.1 µM)	1.5 µg/mL (≈ 3.85 µM)	3.1 µg/mL (≈ 7.96 µM)	6.2 µg/mL (≈ 15.9 µM)	6.2 µg/mL (≈ 15.9 µM)	12.5 µg/mL (≈ 32.1 µM)	MIC [1, 15]: 1.5 µg/mL (≈ 3.85 µM); MIC (B. fragilis NCTC 10581; read-out: MIC): 6.2 µg/mL (≈ 15.9 µM); MIC (B. fragilis WS-1; [16]): 6.2 µg/mL (≈ 15.9 µM); MBC (B. fragilis WS-1; [17]): 6.2 µg/mL (≈ 15.9 µM)
[O-][N+]1=C(c2ccccc2)C2=NCCN2c2cc(N3CCN(c4ccccc4)CC3)ccc21 [Example 8, 1,2-Dihydro-4-phenyl-8-(4-phenylpiperazinyl)imidazo[1,2-a]quinoxaline 5-oxide]	< 0.8 µg/mL						< 0.8 µg/mL			> 100 µg/mL	3.1 µg/mL (≈ 7.32 µM)	> 100 µg/mL	< 0.8 µg/mL	< 0.8 µg/mL	> 100 µg/mL	1.5 µg/mL (≈ 3.54 µM)	3.1 µg/mL (≈ 7.32 µM)	> 100 µg/mL		> 100 µg/mL	MIC (B. fragilis NCTC 10581; read-out: MIC): 1.5 µg/mL (≈ 3.54 µM); MIC (B. fragilis WS-1; [21]): 3.1 µg/mL (≈ 7.32 µM); MIC (B. fragilis NCTC 9343; read-out: MIC): 1.5 µg/mL (≈ 3.54 µM)
